Tested on: not given
Test: not given
Conditions: not given

Row | Structure (SMILES) | melting point [°C]
1 | CCCCOCCOc1ccc(-c2ccc3c(c2)C=C(C(=O)Nc2ccc(SCc4nccn4CCCC(=O)OCC)cc2)CCCN3CC(C)C)cc1 [Compound 33, ethyl 4-(2-(((4-(((8-(4-(2-butoxyethoxy)phenyl)-1-isobutyl-1,2,3,4-tetrahydro-1-benzoazocine-5-yl)carbonyl)amino)phenyl)sulfanyl)-methyl)imidazol-1-yl)butanoate] | 130 to 131
2 | CCCCOCCOc1ccc(-c2ccc3c(c2)C=C(C(=O)Nc2ccc(SCc4nncn4CCC)cc2)CCCN3CC(C)C)cc1 [Compound 46, 8-[4-(2-butoxyethoxy)phenyl]-1-isobutyl-N-[4-[[(4-propyl-4H-1,2,4-triazol-3-yl)methyl]thio]phenyl]-1,2,3,4-tetrahydro-1-benzazocine-5-carboxamide] | 122 to 126
3 | CCCCOCCOc1ccc(-c2ccc3c(c2)C=C(C(=O)Nc2ccc([S+]([O-])Cc4nncn4CCC)cc2)CCCN3CC(C)C)cc1 (stereo not drawn) [Compound 47, 8-[4-(2-butoxyethoxy)phenyl]-1-isobutyl-N-[4-[[(4-propyl-4H-1,2,4-triazol-3-yl)methyl]sulfinyl]phenyl]-1,2,3,4-tetrahydro-1-benzazocin-5-carboxamide] | 105 to 110
4 | CCCCOCCOc1ccc(-c2ccc3c(c2)C=C(C(=O)Nc2ccc([S+]([O-])Cc4nncn4CCC)cc2)CCCN3CCC)cc1 (stereo not drawn) [Compound 51, 8-[4-(2-butoxyethoxy)phenyl]-1-propyl-N-[4-[[(4-propyl-4H-1,2,4-triazol-3-yl)methyl]sulfinyl]phenyl]-1,2,3,4-tetrahydro-1-benzazocine-5-carboxamide] | 167 to 170
5 | CCCCOCCOc1ccc(-c2ccc3c(c2)C=C(C(=O)Nc2ccc([S+]([O-])Cc4nccn4CCCC(=O)OCC)cc2)CCCN3CC(C)C)cc1 (stereo not drawn) [Compound 54, ethyl 4-(2-(((4-(((8-(4-(2-butoxyethoxy)phenyl)-1-isobutyl-1,2,3,4-tetrahydro-1-benzazocine-5-yl)carbonyl)amino)phenyl)sulfinyl)methyl)imidazol-1-yl)butanoate] | 133.5 to 134.5

Target: T1, human CCR5 (Homo sapiens, UniProt P51681)
T1 construct: expressed in transfected cells; host or cells: CHO-K1 cells, stably transfected with pCKR5 (pcDNA3.1 backbone), Geneticin-selected
T1 sequence (P51681 whole entry): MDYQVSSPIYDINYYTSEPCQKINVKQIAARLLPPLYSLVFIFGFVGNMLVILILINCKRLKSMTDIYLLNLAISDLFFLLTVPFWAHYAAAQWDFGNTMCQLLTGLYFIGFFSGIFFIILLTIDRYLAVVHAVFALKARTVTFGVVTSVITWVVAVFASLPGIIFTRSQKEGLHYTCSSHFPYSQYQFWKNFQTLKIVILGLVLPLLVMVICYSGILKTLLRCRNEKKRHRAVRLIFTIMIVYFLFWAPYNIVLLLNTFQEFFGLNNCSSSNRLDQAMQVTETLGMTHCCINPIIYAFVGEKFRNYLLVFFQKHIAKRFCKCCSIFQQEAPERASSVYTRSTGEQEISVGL
Test: Inhibition of [125I]-RANTES binding to CCR5/CHO cells (CCR5 antagonist activity)
Conditions: 40 min, test compound 1 μM, 100 pM [125I]-RANTES as ligand, room temperature, read-out: Binding Inhibitory Ratio (%)
Experimental: (1) Cloning of Human CCR5 Chemokine Receptor Cloning of CCR5 gene was conducted from human spleen cDNA by PCR method. Using cDNA (0.5 ng) from spleen (Toyobo, QUICK-Clone cDNA) as a genetic template, primer sets prepared by referring to CCR5 gene nucleotide sequence described by Samson et al. (Biochemistry 35 (11), 3362-3367 (1996), i.e., (2) Preparation of Expression Plasmid of Human CCR5 […] The DNA fragments and an expression plasmid for animal cells pcDN A3.1 (Funakoshi), which was previously digested by XbaI and BamHI, were mixed and ligated by DNA Ligation Kit Ver. 2 (Takara Shuzo). Transformation of E. coli JM109 competent cells (Takara Shuzo) gave plasmid pCKR5. (3) Introduction of the Human CCR5 Expression Plasmid into CHO-K1 Cells and Expression Thereof […] The cells were washed with PBS (Lifetech Oriental), centrifuged (1000 rpm, 5 minutes), and resuspended in PBS. The DNA was introduced into the cells using Gene Pulser (BioRad) according to the following conditions. […] The cells were diluted to a concentration of 10^4 cells/ml, and inoculated in 96 well plate (Becton Dickinson), to obtain Geneticin-resistant cells. The Geneticin-resistant cells ware grown in 96 well plate (Becton Dickinson), and CCR5 expressing cells were selected from the resistant cells. Namely, in an assay buffer, (Ham F12 medium containing 0.5% BSA, and 20 mM HEPES (Wako Pure Chemical Ind., pH 7.2)), containing 200 pM [^125I]-RANTES (Amersham) as a ligand, the cells were subjected to binding reaction at room temperature for 40 minutes. The well plate containing the cells was washed with ice-cooled PBS, added with 1M NaOH in an amount of 50 μl/well and stirred. The cells to which the ligand bound specifically, i.e., CCR5/CHO cells, were selected by measurement of radioactivity by γ-counter. (4) Evaluation of Compounds Based on CCR5 Antagonist Activity The CCR5/CHO cells were inoculated in 96 well microplate at a concentration of 5×10^4 cells/well, and grown for 24 hours. After removal of the medium by aspiration, to each well was added an assay buffer containing a test compound (1 μM), and (^125I)/RANTES (Amersham) used as a ligand at a concentration of 100 pM. The mixture was subjected to the reaction at room temperature for 40 minutes. After removal of the assay buffer by aspiration, each well was washed with cooled PBS twice. Then, 200 μl MicroScint 20 (Packerd) was added to each well, and the radioactivity of each well was measured by TopCount (Packard). According to the method above, inhibitory ratios to CCR5 binding of the test compounds were determined.

Row | Structure (SMILES) | inhibition at 1 µM [%]
6 | CCCCOCCOc1ccc(-c2ccc3c(c2)C=C(C(=O)Nc2ccc(SCc4nncn4CCC)cc2)CCCN3CC(C)C)cc1 [Compound 46, 8-[4-(2-butoxyethoxy)phenyl]-1-isobutyl-N-[4-[[(4-propyl-4H-1,2,4-triazol-3-yl)methyl]thio]phenyl]-1,2,3,4-tetrahydro-1-benzazocine-5-carboxamide] | 99

Reference: patent US10045968B2, “Bicyclic compound, production and use thereof” (TOBIRA THERAPEUTICS, INC., priority 2001, dated 2018)
